US8138188B2, “Melanocortin type 4 receptor agonist piperidinoylpyrrolidines” (Pfizer Inc., priority 2006, dated 2012)

Experiments:
[1] = In vitro metabolism rate determination, rat liver microsome (RLM) assay; assay type: in vitro ADME; conditions: rat liver microsomes, substrate 1 μM; read-out: RLM (intrinsic clearance)
From the text: In vitro Metabolism Rate Determination (Human Liver Microsome (HLM); Rat Liver Microsome (RLM) Assay)
Many drugs are metabolised by the cytochrome P450 mono-oxygenase system. This enzyme is found in high concentrations in the liver and is bound to the endoplasmic reticulum of the hepatocyte. The enzyme system can be obtained in semi-purified state by the preparation of the hepatic microsomal fractions. Determining a compound's in vitro half-life in such a system provides a useful indicator of metabolic stability.
Methodology For In Vitro Rate Determination Using Hepatic & Supermix Microsomes
The method outlined below is for a total incubation volume of 1.5 ml.
1. The following mixture is prepared in a test tube:
2. Defrost microsomes at room temperature and add sufficient microsomes to give a final concentration of 0.5 nmol cytochrome P450/ml of incubation e.g. for a 1.5 ml incubation, the volume of microsomes to be added is:
[formula] 3. Add sufficient MilliQ water to give a total incubation volume of 1.425 ml. 4. Remove 237.5 μl of incubation mix and place in test tube for PNA positive control. Add 2.5 μl of PNA solution, whirlimix, and put tube into a rack in the thermostatically controlled shaking water bath 5. Remove 100 μl for no substrate control and dispense in test tube. Place test tube in a rack in the thermostatically controlled shaking water bath. 6. Add substrate to the incubation. The substrate should be at an initial concentration of 1 μM. The volume of substrate required in the remaining 1.162.5 ml incubation is calculated as follows:
[formula] • N.B. The volume of organic solvent added should not exceed 0.1% of the total incubation volume. 7. Remove 100 μl of incubation mix into test tube for no cofactor control. Whirlimix and put into a rack in the thermostatically controlled shaking water bath. 8. Pre-incubate the tube containing the incubation mix, also positive control and no cofactor tubes in the thermostatically controlled shaking water bath set at 37° C. for approx 5 min. 9. Add NADP to initiate reaction (75 μl to each 1.162.5 ml incubation mix, 12.5 μl to positive control tube and 5 μl to no substrate tube) and take first time point immediately. The PNA positive control, no cofactor control and no substrate tubes are incubated for the total incubation time. 10. Remove 100 μl aliquots up to 9 different sampling points from 0 to 60 min (usually 0, 3, 5, 10, 15, 20, 30, 45 & 60 min) and terminate reaction. Longer incubation times can be used, but, after 120 min the microsomes deteriorate. The reaction may be terminated by addition of organic solvent, acid or base. At the end of the incubation process the no cofactor and no substrate controls in a similar manner i.e. terminate with the same reagent. 11. PNA Positive Control Procedure: • After the final sample has been taken, remove the positive control and add 1 ml 20% TCA to this tube. Also prepare a tube containing 250 μl of a PNP standard at 50 μM, and add 1 ml 20% TCA. Whirlimix both tubes and leave for approx 5 min to allow the protein to precipitate. • Centrifuge both tubes for approx 5 min in an instrument set at 3500 rpm. Remove 1 ml of supernatant and place into clean test tubes, discard the remainder. • Add 1 ml 10M NaOH to the supernatant, whirlimix, and leave to stand for approx min. Blank spectrophotometer with distilled water at 400 nm then measure absorbance of the PNP standard against distilled water. The microsomal 4-nitroanisole O-demethylase activity is calculated as follows: Calculation of Results
[formula] • The activity value from the incubation MUST be equal to or greater than 85% of the mean value of the batch used for the incubation to be valid. If this criteria is not met, then the incubation must be repeated. 11. Analyse samples (including no cofactor and no substrate control) by a specific assay for the substrate to determine the disappearance kinetics. Analysis Of Data […]

[2] = biological target: T1, CYP3A4 (Homo sapiens, UniProt P08684); assay: High density drug-drug interactions (DDI) 3 μM cocktail screen in human liver microsomes; assay type: in vitro ADME; conditions: 3 uM test compound, pooled human liver microsomes, probe midazolam 2 μM; read-out: % Inhibition of 3A4 metabolism at 3 uM
T1 construct: utilizes human liver microsomes together with isoform-specific clinical drug probes; from tissue; host or cells: human liver microsomes
T1 sequence (P08684 whole entry, canonical isoform): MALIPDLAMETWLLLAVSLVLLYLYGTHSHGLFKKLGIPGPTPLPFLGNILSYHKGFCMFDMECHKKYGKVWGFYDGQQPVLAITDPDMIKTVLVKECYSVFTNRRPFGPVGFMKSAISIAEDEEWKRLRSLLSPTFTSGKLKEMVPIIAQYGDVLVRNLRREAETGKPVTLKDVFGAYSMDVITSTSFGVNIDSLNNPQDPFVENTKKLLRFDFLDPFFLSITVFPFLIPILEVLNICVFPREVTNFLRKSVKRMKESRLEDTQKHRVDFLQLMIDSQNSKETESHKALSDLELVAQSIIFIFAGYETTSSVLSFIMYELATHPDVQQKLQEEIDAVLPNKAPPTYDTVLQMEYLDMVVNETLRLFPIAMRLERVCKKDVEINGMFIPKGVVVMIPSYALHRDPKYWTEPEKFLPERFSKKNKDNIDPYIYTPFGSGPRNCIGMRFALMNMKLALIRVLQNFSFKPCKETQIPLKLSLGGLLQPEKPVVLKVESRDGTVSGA
Description: High Density Drug-Drug Interactions (DDI) 3 μM Cocktail Screen
A drug interaction is a situation in which a substance affects the activity of another drug, i.e. the effects are increased or decreased, or together they produce a new effect that neither produces on its own. Drug interactions may be the result of various processes but a relatively common one is where one drug affects the pharmacokinetics of another by inhibiting the cytochrome P450 that metabolises it. Because of the importance of these phenomena, assessment of the DDI potential for new chemical entities (NCEs) is considered important early on in the drug discovery process.
The DDI cocktail screen in human liver microsomes (HLM) is run in a fully automated fashion and the aim of the screen is to provide a single-point assessment of the DDI potential of new chemical entity (NCE; tested at 3 μM) against the 4 primary cytochrome P450 enzymes, 1A2, 2D6, 2C9 and 3A4.
The substrate cocktail approach for P450 DDI utilizes human liver microsomes together with isoform-specific clinical drug probes and permits the simultaneous measurement of the inhibition of P450 1A2, 2C9, 2D6 & 3A4 activities in a single incubation. This is run in high throughput with simultaneous detection of metabolites by LC-MS/MS. This method has been thoroughly tested and evaluated using standard compounds.
Appearance of the metabolite of each substrate is measured over time in the presence and absence of the NCE (test compound/inhibitor) at a concentration of 3 μM. The compounds are assessed for their inhibitory potential as a percentage value and interpreted using the following scheme.

Structure (SMILES) | microsomal CLint at 1 μM [1] [µL/min/mg] | inhibition at 3 μM [2] [%]
COc1ccc(C2CN(c3ccc(=O)[nH]n3)CC2C(=O)N2CC(C)C(O)(c3ccc(F)cc3)C(C)C2)nc1 (stereo not drawn) [Example 42] | 25 | 59
C[C@@H]1CN(C(=O)[C@@H]2CN(c3ccc(=O)n(C)n3)C[C@H]2c2ccc(Cl)cn2)C[C@H](C)[C@@]1(O)C1CCCCC1 [Example 17] | > 510 | 35
C[C@@H]1CN(C(=O)[C@@H]2CN(c3ccc(Cl)nn3)C[C@H]2c2ccc(Cl)cn2)C[C@H](C)[C@@]1(O)c1ccccn1 [Example 31] | 292 | 60
C[C@@H]1CN(C(=O)[C@@H]2CN(c3ccc(=O)n(C)n3)C[C@H]2c2ccc(Cl)cn2)C[C@H](C)[C@@]1(O)c1ccc(Cl)cn1 [Example 10] | 42 | 19
CC1CN(C(=O)C2CN(c3ccc(=O)n(C)n3)CC2c2ccc(Cl)cn2)CC(C)C1(O)c1ccc(F)c(F)c1 (stereo not drawn) [Example 19] | 21 | 50
CC1CN(C(=O)C2CN(c3ccc(C#N)cn3)CC2c2ccc(C#N)cn2)CC(C)C1(O)c1ccc(F)cc1 (stereo not drawn) [Example 45] | < 8.5 | 69
CC1CN(C(=O)C2CN(c3ccc(=O)[nH]n3)CC2c2ccc(Cl)cn2)CC(C)C1(O)c1ccccc1 (stereo not drawn) [Example 27] | 31 | 64
CC1CN(C(=O)C2CN(c3ccc(=O)n(C)n3)CC2c2ccc(F)cn2)CC(C)C1(O)c1ccccc1 (stereo not drawn) [Example 39] | 58 | 30
C[C@@H]1CN(C(=O)[C@@H]2CN(c3ccc(=O)n(C)n3)C[C@H]2c2ccc(Cl)cn2)C[C@H](C)[C@@]1(O)C1CC1 [Example 18] | 68 | 34
COc1ccc(C2(O)C(C)CN(C(=O)C3CN(c4ccc(=O)n(C)n4)CC3c3ccc(Cl)cn3)CC2C)cc1 (stereo not drawn) [Example 20] | 51.5 | 35
C[C@@H]1CN(C(=O)[C@@H]2CN(c3ccc(=O)n(C)n3)C[C@H]2c2ccc(Cl)cn2)C[C@H](C)[C@@]1(O)c1ccccn1 [Example 22] | 96 | 54
COc1ccc(C2CN(c3ccc(C#N)nn3)CC2C(=O)N2CC(C)C(O)(c3ccc(F)cc3)C(C)C2)cn1 (stereo not drawn) [Example 16] | < 8.5 | 83
